Data: the supplement of paper PMC10307832

Assays:
Assay in all cases: relative viability (nuclei count vs DMSO), 5 days (fraction); higher = more cells survive
[1] = compound: C/C(=N\NC(=S)N1CCC1)/C2=CC=CC=N2 + C[C@@H](Oc1cc(-c2cnn(C3CCNCC3)c2)cnc1N)c1c(Cl)ccc(F)c1Cl [Crizotinib] (partner 1 µM)
Summary of the method: (§1)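 Relative viability equals treated-well nuclei counts divided by vehicle-well nuclei counts. Counts came from 4× images of lung cancer cell lines grown in 1536-well plates for 5 days after pin-tool dosing on the day after seeding. Dosing used one drug alone or a fixed anchor-drug dose plus five library-drug doses (not always all listed) in √10 steps, and values are medians of duplicate plates.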

[2] = compound: C/C(=N\NC(=S)N1CCC1)/C2=CC=CC=N2 + N=C(N)NC(=N)NCCc1ccccc1 [Phenformin] (partner 250 µM)
Summary of the method: as §1

[3] = compound: C/C(=N\NC(=S)N1CCC1)/C2=CC=CC=N2 + CC1(C)CCC(c2ccc(Cl)cc2)=C(CN2CCN(c3ccc(C(=O)NS(=O)(=O)c4ccc(N[C@H](CCN5CCOCC5)CSc5ccccc5)c(S(=O)(=O)C(F)(F)F)c4)cc3)CC2)C1 [Navitoclax] (partner 0.5 µM)
Summary of the method: as §1

[4] = compound: C/C(=N\NC(=S)N1CCC1)/C2=CC=CC=N2 + Nc1ncn([C@H]2C[C@H](O)[C@@H](CO)O2)c(=O)n1 [Decitabine] (partner 2 µM)
Summary of the method: as §1

| Cell Line | relative viability ([1]; first compound 0.05 µM) | relative viability ([1]; first compound 0.1581 µM) | relative viability ([1]; first compound 0.5 µM) | relative viability ([1]; first compound 1.581 µM) | relative viability ([1]; first compound 5 µM) | relative viability ([2]; first compound 0.05 µM) | relative viability ([2]; first compound 0.1581 µM) | relative viability ([2]; first compound 0.5 µM) | relative viability ([2]; first compound 1.581 µM) | relative viability ([2]; first compound 5 µM) | relative viability ([3]; first compound 0.05 µM) | relative viability ([3]; first compound 0.1581 µM) | relative viability ([3]; first compound 0.5 µM) | relative viability ([3]; first compound 1.581 µM) | relative viability ([3]; first compound 5 µM) | relative viability ([4]; first compound 0.05 µM) | relative viability ([4]; first compound 0.1581 µM) | relative viability ([4]; first compound 0.5 µM) | relative viability ([4]; first compound 1.581 µM) | relative viability ([4]; first compound 5 µM) |
| --- | --- | --- | --- | --- | --- | --- | --- | --- | --- | --- | --- | --- | --- | --- | --- | --- | --- | --- | --- | --- |
| NCI-H2085 | 0.269 | 0.236 | 0.25 | 0.219 | 0.225 | 0.198 | 0.297 | 0.243 | 0.178 | 0.239 | 0.246 | 0.248 | 0.245 | 0.248 | 0.281 | 0.255 | 0.324 | 0.358 | 0.309 | 0.376 |
| NCI-H2087 | 0.323 | 0.274 | 0.284 | 0.187 | 0.171 | 0.141 | 0.156 | 0.166 | 0.0953 | 0.0819 | 0.248 | 0.212 | 0.185 | 0.146 | 0.18 | 0.136 | 0.0973 | 0.107 | 0.103 | 0.0802 |
| NCI-H2126 | 0.671 | 1.01 | 0.226 | 0.187 | 0.146 | 0.396 | 0.407 | 0.364 | 0.316 | 0.381 | 0.328 | 0.828 | 0.265 | 0.281 | 0.27 | 0.292 | 0.599 | 0.222 | 0.226 | 0.247 |
| NCI-H2170 | 1.12 | 1.09 | 0.269 | 0.183 | 0.162 | 0.263 | 0.26 | 0.22 | 0.222 | 0.153 | 0.581 | 0.543 | 0.168 | 0.207 | 0.189 | 0.374 | 0.434 | 0.22 | 0.199 | 0.14 |
| NCI-H2347 | 0.557 | 0.438 | 0.322 | 0.233 | 0.302 | 0.159 | 0.195 | 0.202 | 0.208 | 0.273 | 0.214 | 0.263 | 0.195 | 0.16 | 0.193 | 0.363 | 0.335 | 0.34 | 0.349 | 0.367 |
| NCI-H2405 | 0.26 | 0.29 | 0.307 | 0.25 | 0.258 | 0.21 | 0.235 | 0.24 | 0.199 | 0.262 | 0.0935 | 0.0799 | 0.114 | 0.256 | 0.246 | 0.284 | 0.246 | 0.24 | 0.239 | 0.246 |
| NCI-H3122 | 0.151 | 0.171 | 0.185 | 0.171 | 0.176 | 0.0982 | 0.0876 | 0.119 | 0.128 | 0.124 | 0.132 | 0.137 | 0.156 | 0.247 | 0.216 | 0.0981 | 0.269 | 0.086 | 0.127 | 0.136 |
| PC-3 [JPC-3] | 0.594 | 0.984 | 0.361 | 0.301 | 0.252 | 0.332 | 0.342 | 0.334 | 0.277 | 0.195 | 0.42 | 0.855 | 0.281 | 0.253 | 0.285 | 0.534 | 0.526 | 0.418 | 0.344 | 0.324 |
| PC-14 | 0.215 | 0.11 | 0.0946 | 0.0983 | 0.0928 | 0.0972 | 0.134 | 0.095 | 0.0228 | 0.0472 | 0.0569 | 0.0561 | 0.0604 | 0.061 | 0.0618 | 0.0702 | 0.088 | 0.0592 | 0.0503 | 0.0468 |
| RERF-LC-KJ | 0.224 | 0.263 | 0.253 | 0.239 | 0.242 | 0.316 | 0.279 | 0.319 | 0.273 | 0.287 | 0.184 | 0.266 | 0.245 | 0.159 | 0.227 | 0.234 | 0.235 | 0.215 | 0.283 | 0.247 |
| SK-LU-1 | 0.277 | 0.191 | 0.203 | 0.19 | 0.208 | 0.124 | 0.152 | 0.174 | 0.104 | 0.123 | 0.183 | 0.167 | 0.148 | 0.124 | 0.112 | 0.274 | 0.327 | 0.25 | 0.246 | 0.294 |
| SK-MES-1 | 0.231 | 0.214 | 0.179 | 0.167 | 0.177 | 0.219 | 0.233 | 0.197 | 0.175 | 0.173 | 0.186 | 0.21 | 0.18 | 0.13 | 0.185 | 0.193 | 0.186 | 0.171 | 0.142 | 0.19 |
| SW 1573 | 0.11 | 0.123 | 0.138 | 0.102 | 0.0709 | 0.0755 | 0.0616 | 0.0965 | 0.0629 | 0.0599 | 0.138 | 0.0732 | 0.0916 | 0.0833 | 0.0479 | 0.0582 | 0.119 | 0.111 | 0.0723 | 0.0647 |
| UMC-11 | 0.181 | 0.115 | 0.128 | 0.101 | 0.0892 | 0.202 | 0.19 | 0.207 | 0.185 | 0.168 | 0.16 | 0.138 | 0.119 | 0.116 | 0.106 | 0.446 | 0.2 | 0.261 | 0.273 | 0.2 |
